Assay results: patent publication US20040067565A1, “Selective functionalization of hydrocarbons with isolated oxygenases and mediator based regeneration” (priority 2002, published 2004)

Test: [Cp*Rh(bpy)(H2O)]2+ catalyzed reduction of FAD leading to hydrogen peroxide
Experimental: (§1) Hydrogen peroxide was determined enzymatically, based on the method by Saito et al.. Samples were mixed with a solution of 0.6 mM 4-amino antipyrine, 9 mM phenol, and 6 U×ml^−1 peroxidase from Coprinus cinereus. After one minute incubation at room temperature the absorption at 550 nm was measured.
0.2 mM [Cp*Rh(bpy)(H2O)]^2+, 0.05 mM FAD, and 1.16 μM StyA in. 50 mM potassium phosphate buffer with 150 mM sodium formate were incubated at 37° C. and agitation at 1500 rpm. At intervals samples were taken and analyzed for their hydrogen peroxide concentration. From the results a catalytic performance of 48 turnovers per hour for [Cp*Rh(bpy)(H2O)]^2+ was calculated.
In a second experiments a reaction mixture of this composition was supplemented with 2 mM styrene. After 15 min the reaction was stopped and analyzed for hydrogen peroxide and styrene oxide. 0.28 mM styrene oxide and […] were found at this time corresponding to an overall catalytic activity of [Cp*Rh(bpy)(H2O)]^2+ of 47 turnovers per hour.
as §1, with “peroxide produced” for “peroxide”, “enzymatically with a modified assay by” for “enzymatically, based on the”
0.2 mM [Cp*Rh(bpy)(H2O)]^2+, 0.225 mM FAD dissolved in O2 saturated potassium phosphate buffer were thermostated at 37° C. in an air-tight reaction vessel (O2-measurements: 2 ml, UV-measurements: 1 ml quartz kuvette). Reactions were started on addition of sodium formate stock solution (final concentration: 150 mM).
1 ml of 19 μM Cp*Rh(bpy)(H2O)]^2+ and 0-200 μM FAD in 50 mM potassium phosphate buffer (pH 7.0, c(NaHCO2)=150 mM) are placed in a 1.5 ml Eppendorf vial and incubated at 37° C. and agitation at 1500 rpm. At intervals […] samples are withdrawn and analyzed for their H2O2 content (FIG. 17).

Structure (SMILES): Cc1c(C)c(C)[c-](C)c1C.O.[Rh+3].c1ccc(-c2ccccn2)nc1 [[Cp*Rh(bpy)(H2O)]^2+]
- catalytic performance (hydrogen peroxide formation) (0.2 mM [Cp*Rh(bpy)(H2O)]2+, 0.05 mM FAD, 1.16 μM StyA, 150 mM sodium formate, 37 °C, no styrene): 48 turnovers per hour
- catalytic activities from initial H2O2-formation rates (37 °C, c(NaHCO2) 0.15 M, 19 μM [Cp*Rh(bpy)(H2O)]2+, 0-200 μM FAD): 69.9±2.5 catalytic cycles per hour
- overall catalytic activity (hydrogen peroxide and styrene oxide) (as E39, supplemented with 2 mM styrene, after 15 min): 47 turnovers per hour
